Results on six molecules are retold here after US20230131427A1, “FUNGICIDAL COMPOSITIONS” (SYNGENTA CROP PROTECTION AG, priority 2020, published 2023).

In series [1] the test system is Puccinia recondita f. sp. tritici. Description: Puccinia recondita f. sp. tritici / wheat / leaf disc preventative (brown rust). The format is in vivo. To be noted: foliar, vs untreated control. How it is done: (§1) Leaf disks or leaf segments of various plant species are cut from plants grown in a greenhouse. The cut leaf disks or segments are placed in multiwell plates (24-well format) onto water agar. The leaf disks are sprayed with a test solution before (preventative) or after (curative) inoculation. Compounds to be tested are prepared as DMSO solutions (max. 10 mg/mL) which are diluted to the appropriate concentration with 0.025% Tween20 just before spraying. The inoculated leaf disks or segments are incubated under defined conditions (temperature, relative humidity, light, etc.) according to the respective test system. A single evaluation of disease level is carried out 3 to 14 days after inoculation, depending on the pathosystem. Percent disease control relative to the untreated check leaf disks or segments is then calculated.
Wheat leaf segments cv. Kanzler are placed on agar in multiwell plates (24-well format) and sprayed with the formulated test compound diluted in water. The leaf disks are inoculated with a spore suspension of the fungus 1 day after application. The inoculated leaf segments are incubated at 19° C. and 75% rh under a light regime of 12 h light/12 h darkness in a climate cabinet and the activity of a compound is assessed as percent disease control compared to untreated when an appropriate level of disease damage appears in untreated check leaf segments (7-9 days after application).

The test system is the same in series [2]. Description: Puccinia recondita f. sp. tritici / wheat / leaf disc curative (brown rust). The format is in vivo. To be noted: foliar, vs untreated control. How it is done:
Leaf disks or leaf segments of various plant species are cut from plants grown in a greenhouse. The cut leaf disks or segments are placed in multiwell plates (24-well format) onto water agar. The leaf disks are sprayed with a test solution before (preventative) or after (curative) inoculation. […] The inoculated leaf disks or segments are incubated under defined conditions (temperature, relative humidity, light, etc.) according to the respective test system. […] Percent disease control relative to the untreated check leaf disks or segments is then calculated. Wheat leaf segments cv. Kanzler are placed on agar in multiwell plates (24-well format). The leaf segments are inoculated with a spore suspension of the fungus. […] The formulated test compound diluted in water is applied 1 day after inoculation.

The test system of series [3] is Phakopsora pachyrhizi. Description: Phakopsora pachyrhizi / soybean / leaf disc preventative (Asian soybean rust). Particulars: foliar, 288 h, vs untreated control. It counts as in vivo. On the procedure: as §1
Soybean leaf disks are placed on agar in multiwell plates (24-well format) and sprayed with test solutions. After drying, the leaf disks are inoculated with a spore suspension of the fungus. After appropriate incubation the activity of a compound is assessed approx.12 dpi (days after inoculation) as preventive fungicidal activity.

Series [4] concerns Glomerella lagenarium (Colletotrichum lagenarium). Description: Glomerella lagenarium (Colletotrichum lagenarium) liquid culture / cucumber / preventative (anthracnose). It counts as cell-based. Particulars: Colletotrichum orbiculare, vs untreated control. How it is done: Mycelia fragments or conidia suspensions of a fungus prepared either freshly from liquid cultures of the fungus or from cryogenic storage, are directly mixed into nutrient broth. DMSO solutions of the test compound (max. 10 mg/mL) are diluted with 0.025% Tween20 by a factor of 50 and 10 μl of this solution is pipetted into a microtiter plate (96-well format). The nutrient broth containing the fungal spores/mycelia fragments is then added to give an end concentration of the tested compound. The test plates are incubated in the dark at 24° C. and 96% relative humidity. The inhibition of fungal growth is determined photometrically after 2 to 7 days, depending on the pathosystem, and percent antifungal activity relative to the untreated check is calculated.
Conidia of the fungus from cryogenic storage are directly mixed into nutrient broth (PDB potato dextrose broth). After placing a (DMSO) solution of test compound into a microtiter plate (96-well format), the nutrient broth containing the fungal spores is added.

For series [5], the system named is Glomerella lagenarium syn. Colletotrichum lagenarium. Description: Example B1: mixtures, preventative activity against Glomerella lagenarium syn. Colletotrichum lagenarium, liquid culture. The format is cell-based. To be noted: Colletotrichum orbiculare; component A alone, 0.03 ppm. In short, it runs like this:
(§2)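 Fungal conidia mixed into potato dextrose broth were added to test compounds or mixtures in DMSO in microtiter wells. Fungicidal activity was scored on a 100-0 scale (100 = no disease growth; 0 = well fully covered by mycelium). Synergy was assessed by the Colby formula, comparing observed (O) with expected (E) action.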

In a further series the test system is Septoria glycines. Nature of the series: Example B2: mixtures, preventative activity against Septoria glycines (brown spot), liquid culture. It counts as cell-based. To be noted: Septoria glycines, component A alone, 100-0 scale. In outline: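 Conidia from fresh culture mixed into potato dextrose broth and added to test compounds in DMSO in 96-well plates. Growth inhibition scored 100-0 (100 = no growth; 0 = well covered by mycelium); synergy of mixtures judged by Colby expected-action (O-E).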

A further series deals with Septoria tritici. Description: Example B3: mixtures, preventative activity against Septoria tritici (leaf blotch), liquid culture. The format is cell-based. Particulars: component A alone; for inhibition at 0.03 ppm: read-out: Activity (%) A. In short, it runs like this:
as §2

The test system of series [6] is Mycosphaerella arachidis syn. Cercospora arachidicola. Nature of the series: Example B4: mixtures, preventative activity against Mycosphaerella arachidis syn. Cercospora arachidicola (brown leaf spot of peanut), liquid culture. The format is cell-based. To be noted: Mycosphaerella arachidis, component A alone. An excerpt:
This occurs whenever the action of an active ingredient combination is greater than the sum of the actions of the individual components. The action to be expected E for a given active ingredient combination obeys the so-called COLBY formula and can be calculated as follows (COLBY, S. R. “Calculating synergistic and antagonistic responses of herbicide combination”. Weeds, Vol. 15, pages 20-22; 1967):
If the action actually observed (O) is greater than the expected action (E), then the action of the combination is super-additive, i.e. there is a synergistic effect. In mathematical terms, synergism corresponds to a positive value for the difference of (O-E). In the case of purely complementary addition of activities (expected activity), said difference (O-E) is zero. A negative value of said difference (O-E) signals a loss of activity compared to the expected activity.
Conidia of the fungus from cryogenic storage were directly mixed into nutrient broth (PDB potato dextrose broth). A DMSO solution of the test compounds was placed into a microtiter plate (96-well format) and the nutrient broth containing the fungal spores was added to it.
Cercospora arachidicola (Brown leaf spot of peanut). Fungicidal activity was evaluated on a 100-0 scale (100=no disease growth; 0=well completely covered by mycelium).

Series [7] deals with Phakopsora pachyrhizi. Description: Example B5: preventative activity against Phakopsora pachyrhizi (soybean rust), whole soybean plants sprayed, leaf disks inoculated. The format is in vivo. Particulars: applied alone. In outline:
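Soybean plants sprayed 4 weeks after planting at rates in g a.i./ha; leaf disks from the first trifoliate cut 1 day later and inoculated with rust, five repetitions per rate. Scored 11–14 days post-inoculation relative to untreated infested check (100 = no disease, 0 = heavy infestation).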

[8] abbreviates: Zymoseptoria tritici, 100-0 scale.

Where “and” joins values, the source holds several entries; their conditions need not be identical. Equal entries are not always repeated. Where two headings read alike, the source gives them in different places. Some results are limits rather than exact numbers.

The term pest or weed control denotes how far the test organism was held down. As usually defined, the inhibition of growth is the relative decrease from the control value, in per cent. Low readings indicate a response near the control, high ones a response far below the control. The melting point is the temperature, or range, at which the solid turns liquid. On to `CO/C=C(\Oc1cc(-n2ccc(C(C)C)n2)ccc1C)C(=O)OC` [X.06, methyl (Z)-2-[5-(3-isopropylpyrazol-1-yl)-2-methyl-phenoxy]-3-methoxy-prop-2-enoate], for which the melting point was in the range of 88 to 91 °C. For the same molecule, the pest or weed control at 200 ppm in series [1] was at least 80%. Also, in series [2], the pest or weed control at 200 ppm was at least 80%. For the same molecule, the pest or weed control at 67 ppm with Phakopsora pachyrhizi [3] was at least 80%. The same molecule returned an inhibition of growth at 6.7 ppm in series [4] of at least 80%. In [5], the inhibition at 0.03 ppm came out at 20%. For the same molecule, in the series on Septoria glycines, the inhibition at 0.003125 ppm came to 0% and the inhibition at 0.00625 ppm was found to be 50%. In addition, the inhibition at 0.025 ppm in the series with Septoria glycines (0.025 ppm) was 90%. In the series on Septoria tritici (setting [8]), the inhibition at 0.00625 ppm came out at 50% and the inhibition at 0.03 ppm turned out to be 70%. Besides, in the series on Septoria tritici (0.003125 ppm, 100-0 scale), the “Activity (%) A” value was 0%. For the same molecule, in series [6], the inhibition at 0.003125 ppm was 20% and the inhibition at 0.00625 ppm is 50%. Besides, the inhibition at 2.25 g/ha in the series on Phakopsora pachyrhizi [7] (Phakopsora pachyrhizi, foliar, 2.25 g/ha, read-out: Observed Activity (% of untreated) against Phakopsora pachyrhizi) was 10%. The inhibition at 9 g/ha with Phakopsora pachyrhizi [7] (Phakopsora pachyrhizi, foliar, 9 g/ha, read-out: Observed Activity (% of untreated) against Phakopsora pachyrhizi) amounted to 97%. Also, the inhibition at 18 g/ha in the series on Phakopsora pachyrhizi [7] (Phakopsora pachyrhizi, foliar, 18 g/ha, read-out: Observed Activity (% of untreated) against Phakopsora pachyrhizi) was determined as 97%. Moreover, in the series on Phakopsora pachyrhizi [7] (2.25 g/ha), the “Observed Activity (% of untreated) against Phakopsora pachyrhizi” value (“Observed Activity (% of untreated)” for short) was 13% and 9%; the “Observed Activity (%) (% of untreated) against Phakopsora pachyrhizi” value came to 71%. In the series on Phakopsora pachyrhizi [7] (4.5 g/ha), the “Observed Activity (% of untreated)” value is 61% and 48% and 73%; the “Observed Activity (%) (% of untreated) against Phakopsora pachyrhizi” value is on record as 94%. For the same molecule, the “Observed Activity (% of untreated)” value in the series with Phakopsora pachyrhizi [7] (9 g/ha) was 81% and 93%.
On to `CO/C=C(\Oc1cc(-n2ncc(C(F)(F)F)n2)ccc1C)C(=O)OC` [X.10, methyl (Z)-3-methoxy-2-[2-methyl-5-[4-(trifluoromethyl)triazol-2-yl]phenoxy]prop-2-enoate], for which the melting point was 107 to 109 °C. The molecule further returned a pest or weed control at 200 ppm in series [1] of at least 80%. Moreover, in series [2], the pest or weed control at 200 ppm is at least 80%. The molecule further displayed a pest or weed control at 67 ppm with Phakopsora pachyrhizi [3] of at least 80%. In series [4], this molecule showed an inhibition of growth at 6.7 ppm of at least 80%. For the same molecule, in series [5], the inhibition at 0.03 ppm was 0%. In the series with Septoria glycines, the inhibition at 0.003125 ppm was determined as 70% and the inhibition at 0.00625 ppm turned out to be 90%. The inhibition at 0.03 ppm with Septoria glycines (0.03 ppm, read-out: Activity (%) A) amounted to 0%. The inhibition at 0.003125 ppm in the series on Septoria tritici (Zymoseptoria tritici, 72 h, 0.003125 ppm) is 70%. The inhibition at 0.00625 ppm in the series with Septoria tritici (Zymoseptoria tritici, 72 h) is 90%. Moreover, the inhibition at 0.03 ppm with Septoria tritici (Zymoseptoria tritici, 72 h, 72 hrs) turned out to be 0%. Moreover, in series [6], the inhibition at 0.003125 ppm was 70% and the inhibition at 0.00625 ppm turned out to be 90%. Moreover, in series [6] (0.03 ppm), the inhibition at 0.03 ppm amounted to 0%.
Take `CO/C=C(\Oc1cc(-n2ccc(CC(C)C)n2)ccc1C)C(=O)OC` [X.05, methyl (Z)-2-[5-(3-isobutylpyrazol-1-yl)-2-methyl-phenoxy]-3-methoxy-prop-2-enoate]: the melting point fell in the range of 76 to 80 °C. This molecule also displayed a pest or weed control at 200 ppm in series [1] of at least 80%. The pest or weed control at 200 ppm in [2] was at least 80%. This molecule also came in with a pest or weed control at 67 ppm in the series with Phakopsora pachyrhizi [3] of at least 80%. The molecule further registered an inhibition of growth at 6.7 ppm in [4] of at least 80%.
The molecule `CO/C=C(\Oc1cc(-n2ccc(C3CC3)n2)ccc1C)C(=O)OC` [X.07, methyl (Z)-2-[5-(3-cyclopropylpyrazol-1-yl)-2-methyl-phenoxy]-3-methoxy-prop-2-enoate] yielded a melting point of 115 to 118 °C. In addition, the pest or weed control at 200 ppm in [1] is at least 80%. In series [2], the pest or weed control at 200 ppm was at least 80%. Further, the pest or weed control at 67 ppm in the series with Phakopsora pachyrhizi [3] was at least 80%. In [4], the inhibition of growth at 6.7 ppm was at least 80%.
For the molecule `CO/C=C(\Oc1cc(-n2ccc(OC(C)C)n2)ccc1C)C(=O)OC` [X.03, methyl (Z)-2-[5-(3-isopropoxypyrazol-1-yl)-2-methyl-phenoxy]-3-methoxy-prop-2-enoate], the melting point was 94 to 97 °C. Also, in [1], the pest or weed control at 200 ppm is at least 80%. This molecule also yielded a pest or weed control at 200 ppm in series [2] of at least 80%. The molecule further yielded a pest or weed control at 67 ppm in the series with Phakopsora pachyrhizi [3] of at least 80%. In series [4], this molecule yielded an inhibition of growth at 6.7 ppm of at least 80%.
`CO/C=C(\Oc1cc(-n2ccc(C3CCC3)n2)ccc1C)C(=O)OC` [X.04, methyl (Z)-2-[5-(3-cyclobutylpyrazol-1-yl)-2-methyl-phenoxy]-3-methoxy-prop-2-enoate] showed a melting point of 91 to 94 °C. The pest or weed control at 200 ppm in series [1] was at least 80%. Moreover, in series [2], the pest or weed control at 200 ppm was at least 80%. The pest or weed control at 67 ppm in the series with Phakopsora pachyrhizi [3] is at least 80%. In series [4], the inhibition of growth at 6.7 ppm was at least 80%.
